In patent US8980833B2, “Tubulysine derivatives” (priority 2007, dated 2015):
Read-outs that look alike come from different tables or passages of the source.

Columns and labels:
Assay type in all cases: cell-based
HT-29 (colon) cells = experiment: MTS cell survival assay, HT-29 (colon); settings: 48 hours incubation, read-out: IC50 cell line HT-29
Protocol: (§1) Seed 96-well plates at a concentration of 5000 cells/well in a volume of 100 μl with A2780 (ovarian), HT-29 (colon), MDA-MB-231 (breast), NCI-H1299 (non-small cell lung, MCF-7 (breast) cells or any other available cancer cell line. Incubate for 24 hours at 37° C.
(§2) Prepare a stock solution of Tubulysin derivative by dissolving at 10 mg/ml in methanol. Prepare dilutions of 1 mg/ml in methanol and 17 μg/ml (20 μM) in cell culture medium, and make serial 10-fold dilutions down to 2 pM in cell culture medium.
(§3) Add 100 μl of Tubulysin to triplicate wells for a final dose range of 1 pM to 10 μM. Reserve three wells for “untreated” cells and three wells of medium alone as a “blank”. Incubate plates at 37° C. for 48 hours.
(§4) Prepare MTS assay reagent by diluting CellTiter 96 AQueous One Solution (Promega) 5-fold into PBS/glucose (4.5 g/L). Aspirate cell culture medium. Aliquot 100 μl of MTS reagent to each well. Incubate at 37° C. for 1-2 hours depending on the cell line.
(§5) Shake the plates for 5 minutes and measure the absorbance at 485 nm using a plate reader (e.g. Tecan). Enter the raw data into an excel spreadsheet to obtain the % cell survival for each cell line. Graph dose (nM) vs. % cell survival and estimate IC50s from the graphs.
(§6) Use a 4-parameter logistic fit to obtain IC50 values: y=(a−d)/(1+(x/c)^b)+d • where • x=dose • y=% cell survival • a=lower asymptote • b=slope • c=IC50 • d=upper asymptote
(§7) Enter values for x and y. Estimate values for a, b, c, and d. Run the solver tool on the sum of squared errors cell. Minimize the sum of squared errors by varying parameters a through d. Obtain the IC50 (nM) from parameter c.

A2780 (ovarian) cells = experiment: MTS cell survival assay, A2780 (ovarian); settings: 48 hours incubation, read-out: IC50 cell line A2780
Protocol: as §1, §2, §3, §4, §5, §6, §7

MCF-7 (breast) cells = experiment: MTS cell survival assay, MCF-7 (breast); settings: read-out: IC50 cell line MCF-7
Protocol: as §1, §2, §3, §4, §5, §6, §7

[1] = test system: NCI-H1299 (non-small cell lung) cells; experiment: MTS cell survival assay, NCI-H1299 (non-small cell lung); settings: Homo sapiens, 48 hours incubation, read-out: IC50 cell line NCI-H1299
Protocol: as §1, §2, §3, §4
Shake the plates for 5 minutes and measure the absorbance at 485 nm using a plate reader (e.g. Tecan). Enter the raw data into an excel spreadsheet to obtain the % cell survival for each cell line. Graph dose (nM) vs. % cell survival and estimate IC50s from the graphs. […]

[2] = Homo sapiens, MCF7, 48 hours incubation

Q: With `CC[C@H](C)C(NC(=O)C1CCCN1C)C(=O)N(C)[C@H](C[C@@H](OC(C)=O)c1nc(C(=O)N[C@@H](Cc2ccc(N(C)C)cc2)C[C@H](C)C(=O)O)cs1)C(C)C` (stereo partly shown) as the molecule, how does the IC50 (HT-29 (colon) cells; Homo sapiens) read?
A: The IC50 was 2.1 nM.

Q: And the IC50 (A2780 (ovarian) cells; Homo sapiens)?
A: The IC50 was 0.7 nM.

Q: For `CCCN(C(=O)C(NC(=O)C1CCCCN1C)[C@@H](C)CC)[C@H](C[C@@H](OC(C)=O)c1nc(C(=O)N[C@@H](Cc2ccc(-c3ccccc3)cc2)C[C@H](C)C(=O)O)cs1)C(C)C` (stereo partly shown), which IC50 (HT-29 (colon) cells; Homo sapiens) is on record?
A: The IC50 was 0.28 nM.

Q: What about the IC50 (MCF-7 (breast) cells; [2]) of the same molecule?
A: Its IC50 is 0.4 nM.

Q: Which IC50 (HT-29 (colon) cells; Homo sapiens) does the source give for `CC[C@H](C)C(NC(=O)C1CCCCN1C)C(=O)N(C)[C@H](C[C@@H](OC(C)=O)c1nc(C(=O)N[C@@H](Cc2ccc(F)cc2)C[C@H](C)C(=O)O)cs1)C(C)C` (stereo partly shown) here?
A: Its IC50 is 3 nM.

Q: What about the IC50 (A2780 (ovarian) cells; Homo sapiens) of the same molecule?
A: Its IC50 is 0.8 nM.

Q: And the IC50 [1]?
A: The IC50 was 1.93 nM.

Q: How did the IC50 (HT-29 (colon) cells; Homo sapiens) turn out when `CCCN(C(=O)C(NC(=O)C1CCCCN1C)[C@@H](C)CC)[C@H](CCc1nc(C(=O)N[C@H](CCC(=O)O)Cc2ccccc2)cs1)C(C)C` (stereo partly shown) was run?
A: Its IC50 is 3.1 nM.

Q: And the IC50 (A2780 (ovarian) cells; Homo sapiens)?
A: The IC50 was 1.1 nM.

Q: What does the source list for `CCCN(C(=O)C(NC(=O)C1CCCCN1C)[C@@H](C)CC)[C@H](C[C@@H](OC(C)=O)c1nc(C(=O)N[C@H](CCC(=O)O)Cc2ccc(F)cc2)cs1)C(C)C` (stereo partly shown)?
A: IC50 (HT-29 (colon) cells; Homo sapiens): 0.49 nM; IC50 (A2780 (ovarian) cells; Homo sapiens): 0.3 nM

Q: With `CC[C@H](C)C(NC(=O)C1CCCN1C)C(=O)N(C)[C@H](C[C@@H](OC(C)=O)c1nc(C(=O)N[C@@H](Cc2ccc(F)cc2)C[C@H](C)C(=O)O)cs1)C(C)C` (stereo partly shown) as the molecule, how does the IC50 (HT-29 (colon) cells; Homo sapiens) read?
A: Its IC50 is 3.1 nM.

Q: And the IC50 (MCF-7 (breast) cells; [2])?
A: Its IC50 is 1.1 nM.

Q: `CC[C@H](C)C(NC(=O)C1CCCCN1C)C(=O)N(C)[C@H](C[C@@H](OC(C)=O)c1nc(C(=O)N[C@@H](Cc2ccc(-c3ccccc3)cc2)C[C@H](C)C(=O)O)cs1)C(C)C` (stereo partly shown) was tested. Which IC50 (HT-29 (colon) cells; Homo sapiens) did it give?
A: The IC50 was 2.3 nM.

Q: What about the IC50 (A2780 (ovarian) cells; Homo sapiens) of the same molecule?
A: Its IC50 is 1.4 nM.

Q: For `CCCN(C(=O)C(NC(=O)C1CCCCN1C)[C@@H](C)CC)[C@H](C[C@@H](OC(C)=O)c1nc(C(=O)N[C@@H](Cc2ccc(F)cc2)C[C@H](C)C(=O)O)cs1)C(C)C` (stereo partly shown), which IC50 (HT-29 (colon) cells; Homo sapiens) is on record?
A: The IC50 was 0.48 nM.

Q: And the IC50 (A2780 (ovarian) cells; Homo sapiens)?
A: The IC50 was 0.3 nM.

Q: What about the IC50 [1] of the same molecule?
A: The IC50 was 0.52 nM.

Q: What about the IC50 (MCF-7 (breast) cells; [2]) of the same molecule?
A: Its IC50 is 0.4 nM.

Q: What does the source list for `CC(=O)O[C@H](C[C@H](C(C)C)N(COC(=O)c1ccccc1)C(=O)C(NC(=O)C1CCCCN1C)C(C)C)c1nc(C(=O)N[C@H](CCC(=O)O)Cc2ccc(F)cc2)cs1` (stereo partly shown)?
A: IC50 (HT-29 (colon) cells; Homo sapiens): 0.45 nM; IC50 (MCF-7 (breast) cells; [2]): 0.4 nM

Q: What does the source list for `CCCCCN(C(=O)C(NC(=O)C1CCCCN1C)[C@@H](C)CC)[C@H](C[C@@H](OC(C)=O)c1nc(C(=O)N[C@@H](Cc2ccc(F)cc2)C[C@H](C)C(=O)O)cs1)C(C)C` (stereo partly shown)?
A: IC50 (HT-29 (colon) cells; Homo sapiens): 0.35 nM; IC50 (MCF-7 (breast) cells; [2]): 0.6 nM

Q: What does the source list for `CC[C@H](C)C(NC(=O)C1CCCCN1C)C(=O)N(C)[C@H](C[C@@H](OC(C)=O)c1nc(C(=O)N[C@@H](Cc2ccc(OC)cc2)C[C@H](C)C(=O)O)cs1)C(C)C` (stereo partly shown)?
A: IC50 (HT-29 (colon) cells; Homo sapiens): 2 nM; IC50 (A2780 (ovarian) cells; Homo sapiens): 0.8 nM; IC50 (MCF-7 (breast) cells; [2]): 0.6 nM

Q: With `CCCCCCN(C(=O)C(NC(=O)C1CCCCN1C)[C@@H](C)CC)[C@H](C[C@@H](OC(C)=O)c1nc(C(=O)N[C@@H](Cc2ccc(OC)cc2)C[C@H](C)C(=O)O)cs1)C(C)C` (stereo partly shown) as the molecule, how does the IC50 (HT-29 (colon) cells; Homo sapiens) read?
A: The IC50 was 0.43 nM.

Q: What does the source list for `CC[C@H](C)C(NC(=O)C1CCCCN1C)C(=O)N(COCC(C)C)[C@H](C[C@@H](OC(C)=O)c1nc(C(=O)N[C@@H](Cc2ccc(F)cc2)C[C@H](C)C(=O)O)cs1)C(C)C` (stereo partly shown)?
A: IC50 (HT-29 (colon) cells; Homo sapiens): 3.5 nM; IC50 (A2780 (ovarian) cells; Homo sapiens): 0.9 nM; IC50 (MCF-7 (breast) cells; [2]): 1.1 nM

Q: With `CCCN(C(=O)C(NC(=O)C1CCCCN1C)[C@@H](C)CC)[C@H](CCc1nc(C(=O)N[C@H](CCCO)Cc2ccccc2)cs1)C(C)C` (stereo partly shown) as the molecule, how does the IC50 (HT-29 (colon) cells; Homo sapiens) read?
A: The IC50 was 4.3 nM.

Q: And the IC50 (A2780 (ovarian) cells; Homo sapiens)?
A: The IC50 was 1.6 nM.

Q: For `CC[C@H](C)C(NC(=O)C1CCCCN1C)C(=O)N(CC)[C@H](C[C@@H](O)c1nc(C(=O)N[C@H](CCN)Cc2ccc(F)cc2)cs1)C(C)C` (stereo partly shown), which IC50 (HT-29 (colon) cells; Homo sapiens) is on record?
A: The IC50 was 23 nM.

Q: And the IC50 (MCF-7 (breast) cells; [2])?
A: Its IC50 is 15.2 nM.

Q: `CC[C@H](C)C(NC(=O)C1CCCCN1C)C(=O)N(COC(=O)CC(C)C)[C@H](C[C@@H](OC(C)=O)c1nc(C(=O)N[C@@H](Cc2ccc(O)cc2)C[C@H](C)C(=O)O)cs1)C(C)C` (stereo partly shown) was tested. Which IC50 (HT-29 (colon) cells) did it give?
A: Its IC50 is 0.75 nM.

Q: What about the IC50 (A2780 (ovarian) cells) of the same molecule?
A: Its IC50 is 0.8 nM.

Q: What about the IC50 (MCF-7 (breast) cells; 48 hours incubation) of the same molecule?
A: Its IC50 is 0.6 nM.
